Reference: patent US20170144969A1, “ANT[…], METHOD FOR PRODUCTION AND USES THEREOF” (priority 2014, published 2017)
“And” between values parts separate entries of the source, which are not always exact repeats. Equal values may be shown once. Read-outs that look alike come from different tables or passages of the source.

What was measured:
S. aureus (MTCC 737) = assay: Minimum Inhibitory Concentration, micro-dilution broth; assay type: cell-based, Staphylococcus aureus; conditions: 37° C.
[1] = tested on: Klebsiella pneumoniae (ATCC 700603); assay: as above; assay type: cell-based; conditions: 24 h, 37° C.
[2] = tested on: Enterococcus faecium (ATCC 19634); assay: as above; assay type: cell-based; conditions: 24 h, 37° C., read-out: Minimum Inhibitory Concentration E. faceium
human Red Blood Cells = assay: Haemolytic activity; conditions: for HC50: human RBCs, 1 h at 37° C.
[3] = tested on: vancomycin resistant Enterococcus faecium (VRE) (ATCC 51559); assay: Minimum Inhibitory Concentration, micro-dilution broth; assay type: cell-based; conditions: 24 h, 37° C.
MRSA (ATCC 33591) = assay: as above; assay type: cell-based, methicillin-resistant S. aureus; conditions: 24 h, 37° C.
E. coli (MTCC 443) = assay: as above; assay type: cell-based; conditions: 24 h, 37° C.

Row | Compound | MIC (S. aureus (MTCC 737); 24 h) [µM] | Minimum Inhibitory Concentration K. pneumonie [1] [µM] | MIC [2] [µM] | HC50 (human Red Blood Cells; Table 6) [µM] | MIC [3] | Minimum Inhibitory Concentration MRSA (MRSA (ATCC 33591)) | MIC (E. coli (MTCC 443)) [µM] | HC50 (human Red Blood Cells; Table 3) | hemolysis (human Red Blood Cells; at 1000 µM concentration) | MIC (S. aureus (MTCC 737); Staphylococcus aureus, MTCC737, 24 h) [µM] | MIC ([2]; Enterococcus faecium, ATCC19634, 24 h) [µM] | MIC (E. coli (MTCC 443); Escherichia coli, MTCC443) [µM]
1 | CCCCCCCCCCCCCC(=O)N(CCCNC(=O)[C@H](C)N)CCCNC(=O)[C@H](C)N.O=C(O)C(F)(F)F.O=C(O)C(F)(F)F [Compound 46, N,N-bis-[{3-(^LAla)amido}propyl]tetradecanamide bis(trifluoroacetate)] | 19 | >360 | 9 | 93 | 7.6 µM | 17 µM | 17 | – | – | – | – | –
2 | CCCCCCCCCCCCCCCCCC(=O)N(CCCNC(=O)[C@@H](N)Cc1ccccc1)CCCNC(=O)[C@@H](N)Cc1ccccc1.O=C(O)C(F)(F)F.O=C(O)C(F)(F)F [Compound 5, N,N-bis-[{3-(^LPhe)amino}propyl]octadecanamide bis(trifluoroacetate)] | 12 | 95 | 11 | – | 3.2 µM | 5.6 µM | 270 | 71 | – | – | – | –
3 | CCCCCCCCCCCCCC(=O)N(CCCNC(=O)[C@@H](N)Cc1c[nH]c2ccccc12)CCCNC(=O)[C@@H](N)Cc1c[nH]c2ccccc12.O=C(O)C(F)(F)F.O=C(O)C(F)(F)F [Compound 7, N,N-bis-[{3-(^LTrp)amino}propyl]tetradecanamide bis(trifluoroacetate)] | 2.5 | – | 2.5 | – | 2.7 µM | – | 39 | – | – | – | – | –
4 | CCCCCCCCCCCCCCCC(=O)N(CCCNC(=O)[C@@H](N)Cc1c[nH]c2ccccc12)CCCNC(=O)[C@@H](N)Cc1c[nH]c2ccccc12.O=C(O)C(F)(F)F.O=C(O)C(F)(F)F [Compound 8, N,N-bis-[{3-(^LTrp)amino}propyl]hexadecanamide bis(trifluoroacetate)] | 6.5 | – | 5.4 | – | 7 µM | – | >257 | – | – | – | – | –
5 | CCCCCCCCCCCCCC(=O)N(CCCNC(=O)[C@@H](N)Cc1ccccc1)CCCNC(=O)[C@@H](N)Cc1ccccc1.O=C(O)C(F)(F)F.O=C(O)C(F)(F)F [Compound 3, N,N-bis-[{3-(^LPhe)amino}propyl]tetradecanamide bis(trifluoroacetate)] | 7 | 18 | 5.2 | – | 2.8 µM | 4.8 µM | 16 | 144 | – | – | – | –
6 | N^1-octyl-N^3-(Boc-^LLys)-N^1-[3-{(Boc-^LLys)amino}propyl]propane-1,3-diamine tris(trifluoroacetate) [Compound 20] | 86 | – | – | – | – | – | 133 | – | – | – | – | –
7 | NCCCC[C@H](N)C(=O)NCCCNCCCNC(=O)[C@@H](N)CCCCN.O=C(O)C(F)(F)F.O=C(O)C(F)(F)F.O=C(O)C(F)(F)F [Compound 23, N^1-^LLys-N^3-[{3-(^LLys)amino}propyl]propane-1,3-diamine tris(trifluoroacetate)] | >250 | >250 | >250 | – | >250 µM | >250 µM | >250 | – | – | – | – | –
8 | CCCCCCCCCCCCCCCC(=O)N(CCCNC(=O)[C@@H](N)CCCN)CCCNC(=O)[C@@H](N)CCCN.O=C(O)C(F)(F)F.O=C(O)C(F)(F)F [Compound 15, N,N-bis-[{3-(^LOrn)amino}propyl]hexadecanamide bis(trifluoroacetate)] | 6.4 | – | 3.2 | – | 3 µM | – | 5.2 | – | – | – | – | –
9 | CCCCCCCCCCCC(=O)N(CCCNC(=O)[C@@H](N)C(C)C)CCCNC(=O)[C@@H](N)C(C)C.O=C(O)C(F)(F)F.O=C(O)C(F)(F)F [Compound 48, N,N-bis-[{3-(Val)amido}propyl]dodecanamide bis(trifluoroacetate)] | 28 | 58 | 25 | 264 | 25 µM | 40 µM | 18 | – | – | – | – | –
10 | CCCCCCCCCCCCCCCC(=O)N(CCCNC(=O)[C@H](N)CCCCN)CCCNC(=O)[C@H](N)CCCCN.O=C(O)C(F)(F)F.O=C(O)C(F)(F)F [Compound 17, N,N-bis-[{3-(^DLys)amino}propyl]hexadecanamide bis(trifluoroacetate)] | 3.9 | – | 2.7 | – | 2.2 µM | – | 4.8 | – | – | – | – | –
11 | CCCCCCCCCCCCCCCC(=O)N(CCCNC(=O)[C@@H](N)[C@@H](C)CC)CCCNC(=O)[C@@H](N)[C@@H](C)CC.O=C(O)C(F)(F)F.O=C(O)C(F)(F)F [Compound 53, N,N-bis-[{3-(^LIle)amido}propyl]hexadecanamide bis(trifluoroacetate)] | 4 | – | 3 | 60 | 4.2 µM and 2.6 µM | 2.6 µM and 2.7 µM | 26 | – | – | – | – | –
12 | CCCCCCCCCCCC(=O)N(CCCNC(=O)[C@@H](N)CCCCN)CCCNC(=O)[C@@H](N)CCCCN.O=C(O)C(F)(F)F.O=C(O)C(F)(F)F [Compound 10, N,N-bis-[{3-(^LLys)amino}propyl]dodecanamide bis(trifluoroacetate)] | 37 | 40 | 32 | – | 30 µM | 45 µM | 14 | >1000 | did not show any hemolytic | – | – | –
13 | CCCCCCCCCCCCCCCC(=O)N(CCCNC(=O)CN)CCCNC(=O)CN.O=C(O)C(F)(F)F.O=C(O)C(F)(F)F [Compound 44, N,N-bis-[{3-(Gly)amido}propyl]hexadecanamide bis(trifluoroacetate)] | 6.5 | >365 | 4 | 90 | 3.3 µM | 10 µM | 5.9 | – | – | – | – | –
14 | CCCCCCCCCCCC(=O)N(CCCNC(=O)[C@@H]1CCCN1)CCCNC(=O)[C@@H]1CCCN1.O=C(O)C(F)(F)F.O=C(O)C(F)(F)F [Compound 57, N,N-bis-[{3-(^LPro)amido}propyl]dodecanamide bis(trifluoroacetate)] | 60 | >340 | 78 | 918 | 112 µM | 130 µM | 90 | – | – | – | – | –
15 | CCCCCCCCCCCCCCCCCC(=O)N(CCCNC(=O)[C@@H](N)CCCCN)CCCNC(=O)[C@@H](N)CCCCN.O=C(O)C(F)(F)F.O=C(O)C(F)(F)F [Compound 13, N,N-bis-[{3-(^LLys)amino}propyl]octadecanamide bis(trifluoroacetate)] | 7.7 | 7.5 | – | – | 2.2 µM | 14 µM | 8.4 | 108 | – | – | – | –
16 | N^1-octyl-N^3-(Boc-^LPhe)-N^1-[3-{(Boc-^LPhe)amino}propyl]propane-1,3-diamine tris(trifluoroacetate) [Compound 18] | 38 | – | – | – | – | – | 68 | – | – | – | – | –
17 | CCCCCCCCCCCCCCCC(=O)N(CCCNC(=O)[C@@H](N)CCCCN)CCCNC(=O)[C@@H](N)CCCCN.O=C(O)C(F)(F)F.O=C(O)C(F)(F)F [Compound 12, N,N-bis-[{3-(^LLys)amino}propyl]hexadecanamide bis(trifluoroacetate)] | – | 6.5 | 1.1 | – | 1 µM | 4.8 µM | 5.4 | 264 | – | – | – | –
18 | N^1-octyl-N^3-(Boc-^LAla)-N^1-[3-{(Boc-^LAla)amino}propyl]propane-1,3-diamine tris(trifluoroacetate) [Compound 19] | 313 | – | – | – | – | – | 343 | – | – | – | – | –
19 | N[C@@H](Cc1ccccc1)C(=O)NCCCNCCCNC(=O)[C@@H](N)Cc1ccccc1.O=C(O)C(F)(F)F.O=C(O)C(F)(F)F.O=C(O)C(F)(F)F [Compound 22, N^1-^LPhe-N^3-[{3-(^LPhe)amino}propyl]propane-1,3-diamine tris(trifluoroacetate)] | >250 | >250 | >250 | – | >250 µM | >250 µM | >250 | – | – | – | – | –
20 | CCCCCCCCCCCCCC(=O)N(CCCNC(=O)[C@@H](N)CC(C)C)CCCNC(=O)[C@@H](N)CC(C)C.O=C(O)C(F)(F)F.O=C(O)C(F)(F)F [Compound 55, N,N-bis-[{3-(^LLeu)amido}propyl]tetradecanamide bis(trifluoroacetate)] | 3.6 | – | 4.2 | 118 | – | – | 5.4 | – | – | – | – | –
21 | N[C@@H](Cc1ccccc1)C(=O)NCCCN(CCCNC(=O)[C@@H](N)Cc1ccccc1)C(=O)Cc1cccc2ccccc12 [Compound 21, N,N-bis-[{3-(^LPhe)amino}propyl]α-naphthylacetamide bis(trifluoroacetate)] | – | – | – | – | > 304 µM | – | – | – | – | > 304 | > 304 | > 304
22 | CCCCCCCCCCCCCC(=O)N(CCCNC(=O)[C@@H](N)CCCN)CCCNC(=O)[C@@H](N)CCCN.O=C(O)C(F)(F)F.O=C(O)C(F)(F)F [Compound 14, N,N-bis-[{3-(^LOrn)amino}propyl]tetradecanamide bis(trifluoroacetate)] | 7.9 | – | 5.2 | – | 5.3 µM | – | 6.6 | – | – | – | – | –
